Laboratory results taken from US20240002425A1, “NOVEL AMINOALKYL GLUCOSAMINIDE 4-PHOSPHATE DERIVATIVE” (DAIICHI SANKYO COMPANY, LIMITED, priority 2020, published 2024).

System: binding between RBD and hACE2
Conditions: in vivo

CCCCCCCCCCC[C@H](CC(=O)N[C@@H](CO[C@@H]1O[C@H](CO[C@]2(C(=O)O)C[C@@H](O)[C@@H](O)[C@@H]([C@H](O)CO)O2)[C@@H](OP(=O)(O)O)[C@H](OC(=O)C[C@@H](CCCCCCCCCCC)OC(=O)CCCCCCCCC)[C@H]1NC(=O)C[C@@H](CCCCCCCCCCC)OC(=O)CCCCCCCCC)CC(=O)O)OC(=O)CCCCCCCCC [Example 2(2e), Ammonium (3R)-3-{[(3R)-3-(decanoyloxy)tetradecanoyl]amino}-4-({3-O-[(3R)-3-(decanoyloxy)tetradecanoyl]-2-{[(3R)-3-(decanoyloxy)tetradecanoyl]amino}-2-deoxy-6-O-(3-deoxy-α-D-manno-oct-2-ulopyranonosyl)-4-O-phosphono-β-D-glucopyranosyl}oxy)butanoate]
inhibition of binding between RBD and hACE2 by nasal wash: inhibited the binding between RBD and hACE2
